Data on four compounds can be found in patent publication US20220265591A1, “USE OF AN OSMOLYTE IN MANUFACTURE OF A MEDICAMENT FOR TREATMENT OF OCULAR DISORDERS” (SINGAPORE HEALTH SERVICES PTELTD, priority 2019, published 2022).

Test [1] deals with T1, TGFBIp611-633 G623R peptide (Homo sapiens, UniProt Q15582, G623R).
T1 construct: The 23-amino acid long peptide (TGFBIp 611-633 c.623 G>R) from the 4th FAS1 domain; purchased Synpeptide Co Ltd, Shanghai, China; host or cells: synthetic peptide
Nature of the test: Circular Dichroism assay (θ[218]), inhibition of amyloid fibrillation. Format: biochemical. How it is done:
The peptide samples were collected 0.1 cm path length quartz cuvettes and examined in a Chirascan™-plus Spectropolarimeter (Applied Photophysics Limited, UK). Spectra were recorded from 260 nm to 190 nm in 0.1 nm steps at a scan rate of 50 nm/min. The final spectrum was the average of three scans as per the manufacturer's recommendation. The Mean Residual Weight (MRW) ellipticity ([θ]mrw values) at wavelength λ was calculated using the following equation (i): […]
whereby θλ is the observed ellipticity at a particular wavelength (degrees), I is the path length (cm), and c is the concentration (g/ml). Secondary structures of the protein were analyzed using CDNN software.
The θ[218] values that determine the β-sheet secondary structure were used to calculate the percentage inhibition in cross β-sheet in the untreated and osmolyte-treated peptide samples at various time points. Percentage inhibition for each osmolyte treatment per time point was calculated by normalizing the [θ]218 values of osmolyte treatment with the [θ]218 values of the untreated samples and expressed as a percentage.
(§1) Circular Dichroism (CD) spectroscopy was performed to study the changes in the secondary structure of the peptides. The TGFBIp^611-633 G623R peptides were treated with 200 mM and 320 mM of taurine in PBS buffer at pH 7.0 for 24 h, 48 h and 72 h, respectively. While the TGFBIp^611-633 N622K peptides were treated with 200 mM and 320 mM of taurine in PBS buffer at pH 7.0 for 72 h, 96 h, 120 h, 144 h, 192 h, 216 h, and 240 h, respectively. The treatment solutions were studied by far UV-CD assay.
In general terms: CD spectra are sensitive to the conformation of chiral molecules.

The target in test [2] is T1, TGFBIp611-633 G623R peptide. Kind of test: ThT fluorescence microscopy, inhibition of amyloid fibrillation. How it is done: The inhibitory effects of the four osmolytes on amyloid fibrillation of the TGFBIp^611-633 G623R peptide were investigated further by fluorescence microscopy after ThT staining. The peptide samples collected at various time points above were incubated ThT at a ratio of 1:1 ratio in the dark for 30 minutes to obtain solutions for fluorescence microscopy. 25 μl of the solutions were taken on to slides with coverslips and visualized under a fluorescent microscope (Axiolmager Z1, Carl Zeiss, Oberkochen, Germany).
The inhibition effect of taurine on the amyloid fibrillation was investigated further by fluorescence microscopy after ThT staining. The samples collected at the various time points above were incubated ThT at a ratio of 1:1 ratio in the dark for 30 minutes to obtain solutions for fluorescence microscopy. 25 μl of the solutions were taken on to slides with coverslips and visualized under a fluorescent microscope.

In test [3] the target is T2, TGFBIp611-633 N622K peptide (Homo sapiens, UniProt Q15582, N622K).
T2 construct: The TGFBIp^611-633 N622K peptides were treated with 200 mM and 320 mM of taurine; purchased Synpeptide Co Ltd, Shanghai, China; host or cells: synthetic peptide
T2 sequence (Q15582 611-633 N622K limits assumed): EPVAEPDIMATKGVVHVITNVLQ
Kind of test: ThT fluorescence assay, inhibition of amyloid fibrillation. The format is biochemical. The conditions noted are these: TGFBIp-N622K, final time point. On the procedure: The TGFBIp^611-633 G623R peptides were treated with 200 mM and 320 mM of taurine for up to 72 hours, respectively, the results of which are illustrated in FIG. 11. The TGFBIp^611-633 N622K peptides were treated with 200 mM and 320 mM of taurine for up to 240 hours, respectively, the results of which are illustrated in FIG. 12. The peptides incubated with PBS were used as controls.
The peptide samples were collected at 24 h, 48 h and 72 h after treatment for TGFBIp^611-633 G623R peptides and at 120 h, 144 h and […] after treatment for the TGFBIp^611-633 N622K peptides. The samples were then treated with 30 μM ThT in PBS buffer at pH 5.5 in a 96-well microplate for ThT fluorescence assay. The microplate was excited at 445 nm and the resulting emission fluorescence at 485 nm was measured using a microplate reader.

The target of test [4] is T2, TGFBIp611-633 N622K peptide. Kind of test: Circular Dichroism assay, inhibition of amyloid fibrillation. Particulars: TGFBIp-N622K, final time point, read-out: % Inhibition at final time point, CD. Format: biochemical. On the procedure:
as §1

Test [5] deals with T3, preformed amyloid fibrils from TGFBIp611-633 N622K peptide (Homo sapiens, UniProt Q15582, N622K).
T3 construct: purchased Synpeptide Co Ltd, Shanghai, China; host or cells: synthetic peptide
Kind of test: ThT fluorescence assay, dissolution of preformed amyloid fibrils. Format: biochemical. Particulars: TGFBIp-N622K preformed fibrils. On the procedure: (§2) The model peptides TGFBIp^611-633 G623R and TGFBIp^611-633 N622K were incubated in PBS for 24 hours for the TGFBIp^611-633 G623R peptide and 96 hours for the TGFBIp^611-633 N622K peptide, allowed to form uniform amyloid fibrils. The formation of amyloid fibrils was confirmed by (SEM) and CD spectroscopy.
The preformed amyloid fibrils were treated with taurine at a concentration of 200 mM and 320 mM for up to 72 hours, respectively. The preformed amyloid fibrils incubated with PBS were used as controls.
The samples were collected at 24 h, 48 h and 72 h after treatment for the TGFBIp^611-633 G623R peptides, and at 24 h, 48 h, 96 h and 144 h after treatment for the TGFBIp^611-633 N622K peptides. The samples were then treated with 30 μM ThT in PBS buffer at pH 5.5 in a 96-well microplate for ThT fluorescence assay. The microplate was excited at 445 nm and the resulting emission fluorescence at 485 nm was measured using a microplate reader.

Test [6] deals with T3, preformed amyloid fibrils from TGFBIp611-633 N622K peptide. Nature of the test: Circular Dichroism assay, disaggregation of preformed amyloid fibrils. The format is biochemical. Particulars: TGFBIp-N622K preformed fibrils, listed as taurine. How it is done:
as §2
Circular Dichroism (CD) spectroscopy was performed to study the disaggregation of the preformed amyloid fibrils. The preformed amyloid fibrils were treated with taurine at a concentration of 200 mM and 320 mM in PBS buffer at pH 7.0 for 24 h, 48 h and 72 respectively. The treatment solutions were studied by far UV-CD assay.

The mark [7] stands for this setting: 200 mM, 24 h, read-out: % Inhibition (mean ± SD) n = 3, θ[218] circular dichroism.
Where [8] appears, read: 200 mM, 48 h, read-out: % Inhibition (mean ± SD) n = 3, θ[218] circular dichroism.
The mark [9] stands for this setting: 200 mM, 72 h, read-out: % Inhibition (mean ± SD) n = 3, θ[218] circular dichroism.

Entries after “also recorded” stand apart in the source; their conditions may differ. Like-named read-outs stand apart in the source and are kept apart here.

T1 sequence (Q15582 611-633 G623R limits assumed): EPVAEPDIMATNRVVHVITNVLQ

What is called inhibition is the relative decrease from the control value, in per cent. By % Inhibition is commonly meant the change of the read-out against control, counted positive when it falls. Lower therefore signals a weak effect. For the compound `NCCS(=O)(=O)O` [Taurine, taurine], the inhibition at 200000 µM in test [1] (setting [7]) was roughly 25%; in test [1] (setting [8]), roughly 54%; in test [1] (setting [9]), roughly 56%; in test [1] (TGFBIp-G623R, 200 mM, final time point, read-out: % Inhibition at final time point, CD) it was 41%; in test [3] (200 mM), 37%; in test [4] (200 mM) it was 39%. Further, the “% Inhibition at final time point, CD” value in test [1] (TGFBIp-G623R, 200 mM, final time point) is 42%; in test [1] (TGFBIp-G623R, 320 mM, final time point), 63%. For the same compound, the inhibition at 320000 µM was determined as 61% in test [1] (TGFBIp-G623R, 320 mM, final time point, read-out: % Inhibition at final time point, CD); 76% in test [3] (320 mM); 66% in test [4] (320 mM). Also, in test [2] (200 mM and 320 mM), the “fluorescent intensity under microscope” value was “reduction in fluorescent intensity”. For the same compound, the “ThT fluorescence images, fluorescent spots” value in test [2] (200 mM, 24 h to 72 h, versus PBS control) was “relatively smaller fluorescent spots even after 24 h”. Further, the “% Dissolution at final time point, ThT” value in test [5] (200 mM) was determined as 83%; in test [5] (200 mM, listed as taurine) it was 83%; in test [5] (320 mM) it was 88%; in test [5] (320 mM, listed as taurine), 88%. The “% Dissolution at final time point, CD” value in test [6] (200 mM) is on record as 61%; in test [6] (320 mM), 66%.
For the compound `OC[C@H]1O[C@H](OC[C@H]2O[C@H](O[C@]3(CO)O[C@H](CO)[C@@H](O)[C@@H]3O)[C@H](O)[C@@H](O)[C@@H]2O)[C@H](O)[C@@H](O)[C@H]1O` [Raffinose, raffinose], the “inhibitory effect on fibrillation compared among the four osmolytes, CD” value in test [1] (200 mM) is given as “maximum inhibition; also recorded: maximum inhibitory effect”. Also, the inhibition at 200000 µM in test [1] (setting [7]) came out at 19%; in test [1] (setting [8]), 23%; in test [1] (setting [9]), 57%.
On the same counts, the results for `CNCC(=O)O` [Sarcosine, sarcosine] are “maximum inhibition”, roughly 17%, roughly 43% and roughly 57%.
`C[N+](C)(C)CC(=O)O` [Betaine, betaine]: the inhibition at 200000 µM is 8% in test [1] (setting [7]), 19% in test [1] (setting [8]) and 34% in test [1] (setting [9]).
